# Data from patent US9630894B2, “Energy efficient method and apparatus for the extraction of biomolecules from dilute aqueous solution” (DYNASEP INC., priority 2012, dated 2017).
# Legend:
# Assay type in all cases: physicochemical
# [1] = CCC extraction with DME of clarified fermentation broth from Clostridium acetobutylicum, GC and DNS assay
# Protocol: This example describes three different runs of the CCC with fermentation broth from Clostridium acetobutylicum. […] The fermentation was intentionally interrupted prior to completion.
# The extraction column operated at room temperature (˜25° C.) throughout the column. Periodic extract and raffinate samples were taken and analyzed for the constituents in the extract and raffinate discharges.
# This example describes three different runs. In all cases, the mass of solvent to the mass of feed ratio (S/F) was 0.9. In all example the fermentation broth was first centrifuged to removal all cellular matter. Thus, the feed solution was clarified. In the case of the first run, the following components were measured via gas chromatograph (GC) analysis using external standard calibration. The external standard was run prior to analyzing the samples to provide individual calibration between peak area and the respective constituent under measure. […] Acetate was the conjugate base of acetic acid. Butyrate was the conjugate base of butyric acid. All components were quantified in the extract and raffinate. Since the extract and raffinate are mostly water and DME dissolves in water to approximately 20 wt. %, the samples were allowed to degas over a 24 hour period.
# During the run, samples were taken of the extract and raffinate. In the case of the extract, the bulk DME was removed by reduction of pressure and addition of heat to flash the DME from the water and other solution constituents.
# Extract and raffinate samples were collected at periodic intervals during the CCC testing. […] Glucose was measured via a DNS (3,5-dinitrosalicylic acid) assay.
# In cases where the extract formed a two phase solution, the extract samples were diluted with distilled water to create a single phase and homogenous sample prior to GC. The dilution factor was then used to correct the GC measurements for concentrations prior to dilution.
# [2] = Packed-column extraction of ethanol and ABE solutions with liquid DME, incremental distribution coefficients; details: for Distribution Coefficient: ABE solution
# Protocol: The tests were carried out in a 50-inch long by 0.68-inch internal diameter (ID) column containing stainless steel distillation packing to increase mass transfer between the liquid DME and the aqueous solution. The flow rate of the liquid DME for all the tests was about […], which calculates to a superficial velocity of the liquid DME of ˜0.3 cm/sec.
# For each test, about 65 g of a pre-made feed solution was charged to the extraction column, and the column was sealed. DME was introduced into the system and pressure was maintained at 250 psi with the lab pump. Each run was carried out at ambient temperature (about 30° C.), and flow was manually controlled with the pressure-reduction valve.
# About ⅓ of the charge was extracted in each test with DME in three fractions, and the raffinate was collected at the end of each test in two fractions. In the event that the concentration of ethanol, or ABE, in the raffinate was not homogeneous along the length of the column, the raffinate was collected in two fractions where RAF#1 was the first (bottom) portion of the raffinate drained and RAF#2 was the remaining (upper) portion.
# All samples along with controls were sent to R.D. Laboratories (Washington, Mo.) for gas chromatography (GC) analysis.
# The distribution coefficient (DC) is calculated as the ratio of the concentration of the component in the extract (y) phase to the concentration of the component in the raffinate (x) phase, or DC=Cy/Cx. Using the material balance information in the tables above, and the component analysis supplied by R.D. Labs, the incremental DCs for each fraction were calculated. These DCs are calculated using the conservative assumption that there is no dissolved DME in the liquid phase remaining in the extractor.
# [3] = Distribution coefficients of ABE mixtures between DME and aqueous phase in agitated pressure vessel, HPLC
# Protocol: The compositions of the aqueous mixtures were based on concentrations typically produced in a cellulosic fermentation.
# Mixtures were charged to a pressure vessel and agitated to provide adequate contacting between the aqueous and solvent (DME) phases. Heat tape was used to control the temperature of the liquid that was measured by thermocouples. Pressure and temperature measurements were taken every five minutes. After temperature and pressure stabilization agitation was ceased and the liquid phases were allowed to fully settle.
# A mass balance was also performed on each component of the ABE and BE mixtures to determine a degree of accuracy of the results.
smiles,measurement,setting,value
"CC(C)=O [Acetone, acetone]",concentration in sample,"[1]; Run 3, Extract Bot, time 31 min",7880 µg/mL
same,concentration in sample,"[1]; Run 3, Extract Bot, time 37 min",7900 µg/mL
same,concentration in sample,"[1]; Run 3, Extract Top, time 31 min",7030 µg/mL
same,concentration in sample,"[1]; Run 3, Extract Top, time 37 min",6440 µg/mL
same,concentration in sample,"[1]; Run 3, Extract, time 22 min",2980 µg/mL
same,concentration in sample,"[1]; Run 3, Extract, time 27 min",5300 µg/mL
same,concentration in sample,"[1]; Run 3, Extract, time 43 min",5140 µg/mL
same,concentration in sample,"[1]; Run 3, Extract, time 70 min",4610 µg/mL
same,concentration in sample,"[1]; Run 3, Extract, time 74 min",4090 µg/mL
same,concentration in sample,"[1]; Run 3, Extract, time 78 min",3830 µg/mL
same,concentration in sample,"[1]; Run 3, Extract, time 82 min",4630 µg/mL
same,concentration in sample,"[1]; Run 3, Feed, time 0 min",4870 µg/mL
same,concentration in sample,"[1]; Run 3, Raffinate, time 22 min",1200 µg/mL
same,concentration in sample,"[1]; Run 3, Raffinate, time 27 min",400 µg/mL
same,concentration in sample,"[1]; Run 3, Raffinate, time 31 min",310 µg/mL
same,concentration in sample,"[1]; Run 3, Raffinate, time 37 min",140 µg/mL
same,concentration in sample,"[1]; Run 3, Raffinate, time 43 min",150 µg/mL
same,concentration in sample,"[1]; Run 3, Raffinate, time 70 min",110 µg/mL
same,concentration in sample,"[1]; Run 3, Raffinate, time 74 min",600 µg/mL
same,concentration in sample,"[1]; Run 3, Raffinate, time 78 min",820 µg/mL
same,concentration in sample,"[1]; Run 3, Raffinate, time 82 min",460 µg/mL
same,Distribution Coefficient,"[2]; fraction F1, liquid DME",0.24
same,Distribution Coefficient,"[2]; fraction F2, liquid DME",0.16
same,Distribution Coefficient,"[2]; fraction F3, liquid DME",0.04
same,"distribution coefficient, previous measurements","[2]; previous results, DME/aqueous",0.25
same,distribution coefficient (slope of line fit),[3]; 38° C.,1.27
same,DC,"[3]; test ABE1, […] C., 104 psig",1.28
same,DC,"[3]; test ABE2, 38.3 ° C., 102 psig",1.25
same,DC,"[3]; test ABE3, 38.3 ° C., 103 psig",1.23
same,DC,"[3]; test ABE4, 38.0 ° C., 103 psig",1.34
